The text below walks through data of ChEMBL document CHEMBL1201862, “PubChem BioAssay data set” (2004).

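1) Cells in 96-well plates. 2) Compound, 48 h, 5 concentrations. 3) Linear interpolation between surrounding doses. 4) Unreached endpoint = highest concentration. Abbreviation: GI50, concentration required for 50% inhibition of growth.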 The source made the active and inactive calls. Rule as the data show it: active = GI50 up to about 1.1 µM and inactive = higher. Some results are limits rather than exact numbers.

Holding throughout (assay): inhibition of tumour cell growth, NCI panel, 48 h
For test [1], the system named is IGROV-1.
The test system of test [2] is TK-10.
Test [3] concerns NCI-H226.
For test [4], the system named is NCI-H522.
Test [5] concerns A549.
For test [6], the system named is MOLT-4.
Test [7] has as its system RPMI-8226.
Test [8] concerns NCI/ADR-RES.
Test [9] has as its system Hs-578T.
The test system of test [10] is SK-MEL-28.
The test system of test [11] is Malme-3M.
Test [12] has as its system HCT-116.
The test system of test [13] is LOX IMVI.
For test [14], the system named is BT-549.
In test [15] the test system is SK-MEL-5.
The subject of test [16] is HCT-15.
The test system of test [17] is OVCAR-3.
Test [18] deals with SF-539.
Test [19] concerns M14.
The subject of test [20] is 786-0.

Regarding `O=C(/C=C/c1csc(-c2ccccc2)n1)NCc1ccc(C(=O)NCc2ccccc2)cc1`, the GI50 is 37.2 µM (inactive) in test [1]; 31.9 µM (inactive) in test [2]; > 100 µM (inactive) in [3]; 64.7 µM (inactive) in test [4]; > 100 µM (inactive) in test [5]; > 100 µM (inactive) in test [6]. The GI50 in test [7] was > 100 µM (inactive); in [8], 50.8 µM (inactive); in [9], 13.3 µM (inactive); in test [10] it was > 100 µM (inactive); in test [11], 92 µM (inactive); in [12], > 100 µM (inactive). Moreover, the GI50 was > 100 µM (inactive) in test [13]; > 100 µM (inactive) in [14]; > 100 µM (inactive) in test [15]; more than 100 µM in test [16]; > 100 µM (inactive) in [17]; 32.3 µM (inactive) in test [18]. The GI50 was > 100 µM (inactive) in test [19] and 33 µM (inactive) in test [20].

With `COC1CC(C)(N)C(O)C(C)O1` (stereo not given), the GI50 in test [1], in [2], in test [3], in test [4], in [5] and in test [6] was > 100 µM (inactive) each time. Further, the GI50 in [7], in test [8], in [9], in test [10], in [11] and in test [12] was > 100 µM (inactive) in each case. The GI50 is > 100 µM (inactive) in test [13]; > 100 µM (inactive) in test [14]; > 100 µM (inactive) in [15]; more than 100 µM in test [16]; > 100 µM (inactive) in [17]; > 100 µM (inactive) in [18]. Besides, the GI50 in test [19] and in [20] was > 100 µM (inactive) each time.

Regarding `CC1(c2nc3cc(Cl)c(Cl)cc3[nH]2)CCC(CO)C(C)(C)O1` (stereo not given), the GI50 was 20.9 µM (inactive) in test [1]; 27.6 µM (inactive) in [2]; 12.4 µM (inactive) in test [3]; 6.49 µM (inactive) in [4]; 33.6 µM (inactive) in [5]; 24.5 µM (inactive) in test [6]. Moreover, the GI50 is 16.9 µM (inactive) in test [7]; 17.7 µM (inactive) in test [8]; 14.8 µM (inactive) in test [9]; 24.8 µM (inactive) in test [10]; 24.5 µM (inactive) in [11]; 31.4 µM (inactive) in test [12]. Besides, the GI50 in test [13] is 27.7 µM (inactive); in [14] it was 17.1 µM (inactive); in test [15], 13.2 µM (inactive); in [16] it was 35.6 µM; in test [17] it was 29.5 µM (inactive); in test [18] it was 25.4 µM (inactive). Moreover, the GI50 in test [19] was 26.2 µM (inactive); in test [20] it was 42 µM (inactive).

In the case of `COc1ccc2c(c1)CC[C@@H]1[C@@H]2CC[C@]2(C)/C(=N/OCCN3CCCC3)CC[C@@H]12`, the GI50 is 4.51 µM (inactive) in test [1]; 6.47 µM (inactive) in test [2]; 1.95 µM (inactive) in test [3]; 3 µM (inactive) in test [4]; 2.78 µM (inactive) in test [5]; 1.93 µM (inactive) in test [6]. Moreover, the GI50 was 1.5 µM (inactive) in test [7]; 8.61 µM (inactive) in test [8]; 2.65 µM (inactive) in test [9]; 1.39 µM (inactive) in test [10]; 1.63 µM (inactive) in test [11]; 1.78 µM (inactive) in test [12]. For the same compound, the GI50 was 1.57 µM (inactive) in test [13]; 8.07 µM (inactive) in test [14]; 1.9 µM (inactive) in test [15]; 1.25 µM in test [16]; 5.82 µM (inactive) in test [17]; 1.9 µM (inactive) in [18]. Moreover, the figures for the GI50 in test [19] and in test [20] were 1.27 µM (inactive) and 1.75 µM (inactive), respectively.

In the case of `COc1ccc(Br)c2c1CC(C(=O)O)CC2` (stereo not given), the GI50 in test [1], in test [2], in test [3], in test [4], in test [5] and in [6] was > 100 µM (inactive) throughout. Also, the GI50 in [7], in [8], in test [9], in test [10], in test [11] and in test [12] was > 100 µM (inactive) each time. The GI50 is > 100 µM (inactive) in test [13]; > 100 µM (inactive) in test [14]; > 100 µM (inactive) in test [15]; more than 100 µM in [16]; > 100 µM (inactive) in test [17]; > 100 µM (inactive) in test [18]. For the same compound, the GI50 in test [19] and in test [20] was > 100 µM (inactive) each time.
